Consider three molecules from paper PMC5031577, “Preclinical evaluation of [^68Ga]NOTA-pentixafor for PET imaging of CXCR4 expression in vivo — a comparison to [^68Ga]pentixafor” (EJNMMI Research, 2016).

What is called logP is the decadic logarithm of the partition coefficient of the neutral form, usually between octanol and water. Low readings indicate lower lipophilicity, high ones higher lipophilicity. What is called IC50 is the point on the concentration scale where inhibition reaches its midpoint.

The nature of data set [1]: Biodistribution in Daudi lymphoma xenograft bearing SCID mice. In kind it is in vivo, mouse. The conditions noted are these: female, CB-17 SCID, mouse, iv, total radioactivity, mean ± SD. The protocol: (§1) For PET (n = 3) and biodistribution studies (n = 5), an average of 15.2 MBq [^68Ga]NOTA-pentixafor (100 μL in PBS, 145 pmol, 171 ng) with a specific activity (AS) of 104 GBq/μmol was injected intravenously into the tail vein of isofluorane anesthesized female Daudi lymphoma-bearing SCID mice. […] After static PET imaging for 15 min (Inveon Siemens μPET scanner), the mice were sacrificed (90 min p.i.), and tissues and organs of interest were dissected, weighed, and counted for radioactivity in a γ-counter. The percentage of injected dose per gram of tissue (% ID/g) was calculated; data are shown as mean ± SD.

Data set [2] is described as follows: Metabolite analysis of mouse plasma after i.v. injection. Type of data set: in vivo. The conditions noted are these: CB17 SCID mouse, 50 MBq i.v., plasma at 60 min p.i., RP-HPLC with γ-counter. The protocol: All animal studies were conducted in accordance with the German Animal Welfare Act (Deutsches Tierschutzgesetz, approval No. 55.2-1-54-2532-71-13). For metabolite analysis, 50 MBq of [^68Ga]NOTA-pentixafor in a total volume of 200 μL of PBS was injected into the tail vein of a CB17 SCID mouse; the animal was sacrificed at 1 h p.i. and blood was collected. After sample preparation, as described in [24], the plasma samples were analyzed by reversed phase (RP)-HPLC and eluate fractions were analyzed using a γ-counter.

Data set [3] in a line: Determination of tracer lipophilicity (logP). In kind it is physicochemical. To be noted: determined as published (method ref 22). The protocol:
General procedures and syntheses of the peptides are described in a recently reported protocol. Determination of tracer lipophilicity and serum stability as well as in vitro studies were performed as recently published. ^68Ga-labeling of peptides was performed as described using a fully automated system (Scintomics GmbH); briefly, the ^68Ge/^68Ga generator eluate fractions (1.25 mL) were reacted with 5 nmol of peptide. The mixture was buffered with 0.6 mL HEPES (pH = 7.4) to a final pH of 3–4 and heated to 95 °C for 5 min. After purification via one Sep-Pak C8 light cartridge, the ethanolic product fraction was diluted with PBS and used as such for the experiments.

In data set [4] the test system is Daudi xenograft bearing CB-17 SCID mice. Kind of data set: Biodistribution in Daudi lymphoma xenograft bearing SCID mice. Type of data set: in vivo, mouse. The conditions noted are these: tracer only, i.v., 1.5 h p.i., mean ± SD. The protocol: as §1
Details of data set [5]: method as in PMID 22045709. The conditions noted are these: at 30 min p.i.; cited from earlier work.
The test system of the next data set is CXCR4. The conditions noted are these: Jurkat T cells, [^125I]FC131 radioligand; natGa-complexed peptides and metal-free precursors; determined previously; cited from earlier work. An excerpt: Table 1 Comparison of the lipophilicity and the in vitro CXCR4 targeting characteristics of [^68Ga]NOTA-pentixafor and [^68Ga]pentixafor | column: IC50 (nM)
The mark [6] stands for this setting: adrenals, 15.2 MBq, tracer only, i.v., 1.5 h p.i., read-out: Adrenals uptake.
Where [7] appears, read: heart, 15.2 MBq, tracer only, i.v., 1.5 h p.i., read-out: Heart uptake.
The mark [8] stands for this setting: intestine, 15.2 MBq, tracer only, i.v., 1.5 h p.i., read-out: Intestine uptake.
The mark [9] stands for this setting: kidney, 15.2 MBq, tracer only, i.v., 1.5 h p.i., read-out: Kidney uptake.
The mark [10] stands for this setting: liver, 15.2 MBq, tracer only, i.v., 1.5 h p.i., read-out: Liver uptake.
Where [11] appears, read: lung, 15.2 MBq, tracer only, i.v., 1.5 h p.i., read-out: Lung uptake.
Where [12] appears, read: muscle, 15.2 MBq, tracer only, i.v., 1.5 h p.i., read-out: Muscle uptake.
Setting [13] is: pancreas, 15.2 MBq, tracer only, i.v., 1.5 h p.i., read-out: Pancreas uptake.
Setting [14] is: spleen, 15.2 MBq, tracer only, i.v., 1.5 h p.i., read-out: Spleen uptake.
[15] abbreviates: stomach, 15.2 MBq, tracer only, i.v., 1.5 h p.i., read-out: Stomach uptake.

Like-named read-outs stand apart in the source and are kept apart here. Square brackets hold non-standard residues; d marks the D form. Side chains are listed from the residue outwards. Peptide text beside a SMILES is read from it. * marks the point of attachment. DOTA = O=C(O)CN1CCN(CC(=O)O)CCN(CC(=O)*)CCN(CC(=O)O)CC1; NOTA = O=C(O)CN1CCN(CC(=O)O)CCN(CC(=O)*)CC1; 2Nal = N[C@@H](Cc1ccc2ccccc2c1)C(=O)O; dNMeOrn = CN[C@H](CCCN)C(=O)O; 4Amb = NCc1ccc(C(=O)O)cc1

Turning to `CN1C(=O)[C@@H](Cc2ccc(O)cc2)NC(=O)CNC(=O)[C@H](Cc2ccc3ccccc3c2)NC(=O)[C@H](CCCNC(=N)N)NC(=O)[C@H]1CCCNC(=O)c1ccc(CNC(=O)CN2CCN(CC(=O)O)CCN(CC(=O)O)CC2)cc1` [[^68Ga]NOTA-pentixafor, metal not drawn] (cyclo([2Nal]G[dY][dNMeOrn]([4Amb-NOTA])R)), the tissue uptake at 1.5 h in data set [1] (setting [6]) came to 0.52 ± 0.3 %ID/g; in data set [1] (adrenals, co-injection of 50 μg AMD3100, n = 3, 1.5 h p.i., read-out: Adrenals uptake), 0.48 ± 0.15 %ID/g; in data set [1] (blood, 15.2 MBq, tracer only, i.v., 1.5 h p.i., read-out: Blood uptake), 0.65 ± 0.41 %ID/g; in data set [1] (blood, co-injection of 50 μg AMD3100, n = 3, 1.5 h p.i., read-out: Blood uptake) it was 0.62 ± 0.26 %ID/g; in data set [1] (bone, 15.2 MBq, tracer only, i.v., 1.5 h p.i., read-out: Bone uptake), 0.25 ± 0.18 %ID/g; in data set [1] (bone, co-injection of 50 μg AMD3100, n = 3, 1.5 h p.i., read-out: Bone uptake), 0.16 ± 0.07 %ID/g. Also, the tissue uptake at 1.5 h in data set [1] (gallbladder, 15.2 MBq, tracer only, i.v., 1.5 h p.i., read-out: Gallbladder uptake) stood at 3.61 ± 3 %ID/g; in data set [1] (gallbladder, co-injection of 50 μg AMD3100, n = 3, 1.5 h p.i., read-out: Gallbladder uptake), 5.14 ± 2.24 %ID/g; in data set [1] (setting [7]), 0.34 ± 0.19 %ID/g; in data set [1] (heart, co-injection of 50 μg AMD3100, n = 3, 1.5 h p.i., read-out: Heart uptake) it was 0.36 ± 0.14 %ID/g; in data set [1] (setting [8]), 1.89 ± 0.83 %ID/g; in data set [1] (intestine, co-injection of 50 μg AMD3100, n = 3, 1.5 h p.i., read-out: Intestine uptake) it was 3.97 ± 0.92 %ID/g. Further, the tissue uptake at 1.5 h was determined as 2.71 ± 1.06 %ID/g in data set [1] (setting [9]); 3.56 ± 1.03 %ID/g in data set [1] (kidney, co-injection of 50 μg AMD3100, n = 3, 1.5 h p.i., read-out: Kidney uptake); 2.3 ± 0.88 %ID/g in data set [1] (setting [10]); 2.02 ± 0.76 %ID/g in data set [1] (liver, co-injection of 50 μg AMD3100, n = 3, 1.5 h p.i., read-out: Liver uptake); 0.73 ± 0.25 %ID/g in data set [1] (setting [11]); 0.95 ± 0.38 %ID/g in data set [1] (lung, co-injection of 50 μg AMD3100, n = 3, 1.5 h p.i., read-out: Lung uptake). Besides, the tissue uptake at 1.5 h in data set [1] (setting [12]) was determined as 0.13 ± 0.1 %ID/g; in data set [1] (muscle, co-injection of 50 μg AMD3100, n = 3, 1.5 h p.i., read-out: Muscle uptake), 0.13 ± 0.05 %ID/g; in data set [1] (setting [13]), 0.12 ± 0.05 %ID/g; in data set [1] (pancreas, co-injection of 50 μg AMD3100, n = 3, 1.5 h p.i., read-out: Pancreas uptake) it was 0.16 ± 0.05 %ID/g; in data set [1] (setting [14]) it was 0.44 ± 0.22 %ID/g; in data set [1] (spleen, co-injection of 50 μg AMD3100, n = 3, 1.5 h p.i., read-out: Spleen uptake), 0.54 ± 0.19 %ID/g. The tissue uptake at 1.5 h in data set [1] (setting [15]) was 0.45 ± 0.21 %ID/g; in data set [1] (stomach, co-injection of 50 μg AMD3100, n = 3, 1.5 h p.i., read-out: Stomach uptake) it was 0.58 ± 0.24 %ID/g. Further, in data set [2], the “radiometabolites in mouse plasma (metabolic stability)” value is on record as “complete absence of radiometabolites”. This molecule also showed a lipophilicity (logP) in data set [3] of −2.36.

Take `CN1C(=O)[C@@H](Cc2ccc(O)cc2)NC(=O)CNC(=O)[C@H](Cc2ccc3ccccc3c2)NC(=O)[C@H](CCCNC(=N)N)NC(=O)[C@H]1CCCNC(=O)c1ccc(CNC(=O)CN2CCN(CC(=O)O)CCN(CC(=O)O)CCN(CC(=O)O)CC2)cc1` [[^68Ga]pentixafor, metal not drawn] (cyclo([dY][dNMeOrn]([4Amb-DOTA])R[2Nal]G)): the Intestine uptake in data set [4] worked out at 0.67 ± 0.21 % ID/g. The tissue uptake at 1.5 h came out at 3.68 ± 0.72 %ID/g in data set [1] (setting [6]); 0.58 ± 0.17 %ID/g in data set [1] (setting [7]); 0.7 ± 0.2 %ID/g in data set [1] (setting [8]); 1.65 ± 0.91 %ID/g in data set [1] (setting [9]); 2.05 ± 0.27 %ID/g in data set [1] (setting [10]); 1.32 ± 0.29 %ID/g in data set [1] (setting [11]). For the same molecule, the tissue uptake at 1.5 h was 0.19 ± 0.06 %ID/g in data set [1] (setting [12]), 1.06 ± 0.22 %ID/g in data set [1] (setting [13]), 0.3 ± 0.1 %ID/g in data set [1] (setting [14]) and 0.48 ± 0.08 %ID/g in data set [1] (setting [15]). Moreover, the logP in data set [3] is reported as −2.90. Moreover, the “radiometabolites in mouse plasma (metabolic stability)” value in data set [5] is on record as “complete absence of radiometabolites”.

As for Pentixafor, the IC50 in the data set with CXCR4 is 102 ± 17 nM.
